Laboratory results published in patent US11198692B2, “Dihydro-pyrrolo-pyridine derivatives” (Pfizer Inc., priority 2017, dated 2021).

Target: T1, Human M4 receptors (Homo sapiens, UniProt P08173)
T1 construct: expressed in transfected cells
T1 sequence (P08173 1-479): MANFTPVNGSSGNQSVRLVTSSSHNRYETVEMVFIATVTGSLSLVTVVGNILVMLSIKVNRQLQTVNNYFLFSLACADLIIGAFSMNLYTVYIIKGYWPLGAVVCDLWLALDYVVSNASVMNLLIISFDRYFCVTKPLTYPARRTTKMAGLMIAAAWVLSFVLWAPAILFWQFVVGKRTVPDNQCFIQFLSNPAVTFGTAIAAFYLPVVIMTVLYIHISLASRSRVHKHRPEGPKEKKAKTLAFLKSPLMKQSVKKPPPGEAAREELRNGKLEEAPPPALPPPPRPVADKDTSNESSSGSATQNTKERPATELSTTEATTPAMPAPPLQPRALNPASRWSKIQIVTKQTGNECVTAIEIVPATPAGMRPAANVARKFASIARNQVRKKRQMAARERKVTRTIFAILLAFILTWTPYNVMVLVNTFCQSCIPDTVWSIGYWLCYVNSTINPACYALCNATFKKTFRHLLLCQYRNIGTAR
Test: M4 PAM cAMP assay (GloSensor)
Type: cell-based
Details: HEK293 GloSensor cells expressing hM4, with EC20 acetylcholine and isoproterenol, geometric mean of 2-4 determinations unless footnoted (b: >=5, c: single); for EC50 Mean Asymptote Maximum (%) / Emax: Emax = maximum asymptote of fitted dose response curve; for Emax: read-out: EC50 Mean Asymptote Maximum (%)
Method: The M4 cAMP assay was designed to determine the potency and efficacy of muscarinic positive allosteric modulators (PAMs). Human M4 receptors were stably expressed in Human embryonic kidney (HEK293) cells expressed with the Promega GloSensor™ cAMP technology.
HEK293 GloSensor cells expressing hM4 cells were cultured in growth media containing DMEM with 10% FBS, 1% Penicillin/Streptomycin, 500 μg/mL G418, 200 μg/mL Hygomycin B, and 1% Glutamax. When cells had grown to 80%-90% confluency, cells were harvested and seeded at a density of 25,000 cells/40 μL well, in a 384 white walled plates (Becton Dickinson 356661). Plates were incubated at 37 degrees C. and 5% CO2 for use after 24 hours.
Compound Preparation for Activator Screen:
Test compounds were initially prepared as 100% DMSO stock solutions, then transferred and serially diluted in 384-well compound plates (Matrix #4325). Each compound was tested at 10 concentrations in duplicate per experiment. Compound plates are spotted with 0.2 μL/well activator at 400 times the final assay concentration. Positive and negative controls for the compound alone activator response was 10 μM acetylcholine (Sigma # A2661) and DMSO, respectively. EC20 of acetylcholine was also used to define PAM activities.
Promega GloSensor™reagent (Promega # E1291) had previously been aliquotted. For each experiment, a stock solution of GloSensor™ was thawed out and equilibration medium was prepared with 88% CO2-independent media (Invitrogen #18045088), 10% fetal bovine serum and 2% GloSensor™ cAMP Reagent stock solution. Stock solution was mixed. Culture media in cell plates was discarded, then replaced with 40 μL/well pre-warmed equilibration media, then incubated in the dark at room temperature for 2 hours. During the incubation, stimulation media containing agonist and EC20 acetylcholine was prepared. CO2-independent media containing 50 […] Isoproterenol representing an EC80 of b-adrenergic receptor activity (Sigma #16504, 400 times final concentration) and EC20 acetylcholine in 1.25% DMSO was added to all columns of the compound plate, with the exception of column 12 to allow for EC0 control. […] Compounds are now 5 times the final assay concentration. The plate was mixed using a plate agitator. At the end of the 2 hour GloSensor™ incubation, add 10 μL of the CO2-independent media containing agonist, EC20 acetylcholine and isoproterenol to the cell plate. Cell plate was then incubated for 10 minutes at room temperature, and then read using an EnVision plate reader (Perkin Elmer).
Data was exported from the EnVision plate reader. The percent effect for each well was determined using the mean values for the positive and negative controls on each plate for each read, specifically 100*(compound−negative control)/(positive control−negative control). Dose response curves were fitted to the compound percent effect data using a 4-parameter logistic fit model. Data was reported as EC50 and Emax, with the Emax as the maximum asymptote of the fitted dose response curve.

SMILES	EC50 Mean Asymptote Maximum (%)	EC50 [nM]	Emax [%]
CNc1nc(C)c(C)c2c1CN(C(=O)CC1CN(c3ccnc(C(F)(F)F)c3)C1)C2C (single isomer, unassigned) [Example 44, 2-{1-[2-(trifluoromethyl)pyridin-4-yl]azetidin-3-yl}-1-[1,6,7-trimethyl-4-(methylamino)-1,3-dihydro-2H-pyrrolo[3,4-c]pyridin-2-yl]ethanone]	107^c %	1.8	–
CNc1nc(C)c(C)c2c1CN(C(=O)CC1CN(c3ccnc(C(F)(F)F)c3)C1)C2C (racemic) [Example 42, 2-{1-[2-(trifluoromethyl)pyridin-4-yl]azetidin-3-yl}-1-[1,6,7-trimethyl-4-(methylamino)-1,3-dihydro-2H-pyrrolo[3,4-c]pyridin-2-yl]ethanone]	–	6.96	116
Cc1[nH]c(=O)c2c(c1C)CN(C(=O)CC1CN(c3cccnc3)C1)C2 [Example 21, 6,7-dimethyl-2-{[1-(pyridin-3-yl)azetidin-3-yl]acetyl}-1,2,3,5-tetrahydro-4H-pyrrolo[3,4-c]pyridin-4-one]	–	8.72	99.7
CNc1nc(C)c(C)c2c1CN(C(=O)C[C@@H]1C[C@H]1c1ccc(F)cc1)C2 (single isomer, unassigned) [Example 40, 1-[6,7-dimethyl-4-(methylamino)-1,3-dihydro-2H-pyrrolo[3,4-c]pyridin-2-yl]-2-[trans-2-(4-fluorophenyl)cyclopropyl]ethanone]	121^c %	6.77	–
Cc1nc(NCC2CC2)c2c(c1C)CN(C(=O)CC1CN(c3ccncn3)C1)C2 [Example 22, 1-{4-[(cyclopropylmethyl)amino]-6,7-dimethyl-1,3-dihydro-2H-pyrrolo[3,4-c]pyridin-2-yl}-2-[1-(pyrimidin-4-yl)azetidin-3-yl]ethanone]	–	0.626	99.7
CNc1nc(C)c(C)c2c1CN(C(=O)CCc1ccc(C#N)cc1)C2 [Example 31, 4-{3-[6,7-dimethyl-4-(methylamino)-1,3-dihydro-2H-pyrrolo[3,4-c]pyridin-2-yl]-3-oxopropyl}benzonitrile]	–	12.1	102
Cc1nc(C)c2c(c1C)CN(C(=O)CC1CN(c3cccnc3)C1)C2 [Example 12, 2-[1-(Pyridin-3-yl)azetidin-3-yl]-1-(4,6,7-trimethyl-1,3-dihydro-2H-pyrrolo[3,4-c]pyridin-2-yl)ethanone]	–	19.9	89.3
CNc1nc(C)c(C)c2c1CN(C(=O)C[C@@H]1C[C@H]1c1ccc(C)nc1)C2 (single isomer, unassigned) [Example 47, 1-[6,7-dimethyl-4-(methylamino)-1,3-dihydro-2H-pyrrolo[3,4-c]pyridin-2-yl]-2-[trans-2-(6-methylpyridin-3-yl)cyclopropyl]ethanone]	–	2.05	115
CNc1nc(C)c(C)c2c1CN(C(=O)C[C@@H]1C[C@H]1c1ccc(F)nc1)C2 (single isomer, unassigned) [Example 16, 1-[6,7-dimethyl-4-(methylamino)-1,3-dihydro-2H-pyrrolo[3,4-c]pyridin-2-yl]-2-[trans-2-(6-fluoropyridin-3-yl)cyclopropyl]ethanone]	102^b %	0.838	–
Cc1nc(OC(F)F)c2c(c1C)CN(C(=O)CC1CN(c3cncnc3)C1)C2 [Example 56, 1-[4-(difluoromethoxy)-6,7-dimethyl-1,3-dihydro-2H-pyrrolo[3,4-c]pyridin-2-yl]-2-[1-(pyrimidin-5-yl)azetidin-3-yl]ethanone]	–	150	109
CNc1nc(C)c(C)c2c1CN(C(=O)C[C@@H]1C[C@H]1c1cccnc1)C2 (single isomer, unassigned) [Example 11, 1-[6,7-Dimethyl-4-(methylamino)-1,3-dihydro-2H-pyrrolo[3,4-c]pyridin-2-yl]-2-[trans-2-(pyridin-3-yl)cyclopropyl]ethanone]	94.8^b %	1.6	–
